We go through 3 molecules from paper PMC4469479 (Nature, 2015).

The target in one experiment is dDATmfc sub^B (Drosophila melanogaster, UniProt Q7K4Y6, D121G/DEL162-202/DEL602-606/INS607VPRG/L415A/S426M/V74A). It counts as binding.
The target in experiment [1] is T1, dDATmfc (Drosophila melanogaster, UniProt Q7K4Y6, DEL162-202/DEL602-606/INS607VPRG/L415A/V74A). Type of experiment: binding.
Experiment [2] deals with T1, dDATmfc. Conditions: HEK293S cells; 14C-DA 0.3–60 μM; s.e.m.

In turn, `NCCc1ccc(Cl)c(Cl)c1` [DCP, 3,4-dichlorophenethylamine] came in with a Ki on dDATmfc sub^B of 0.267 ± 0.02 µM.

The molecule `COC(=O)[C@H]1[C@@H](OC(=O)c2ccccc2)C[C@@H]2CC[C@H]1N2C` [cocaine] registered a Ki on dDATmfc [1] of 33 ± 3 µM. `NCCc1ccc(O)c(O)c1` [dopamine]: on dDATmfc [2], the “Vmax of DA transport by dDATmfc” value came to 2.4 ± 0.2 pmol/min/10^6 cells.
